Data from the supplement of paper PMC10307832.

Columns and labels:
Veliparib + Dasatinib = compound: C[C@]1(c2nc3c(C(N)=O)cccc3[nH]2)CCCN1 [Veliparib] + Cc1nc(Nc2ncc(C(=O)Nc3c(C)cccc3Cl)s2)cc(N2CCN(CCO)CC2)n1 [Dasatinib] (partner 0.075 µM); experiment: relative viability (nuclei count vs DMSO), 5 days (fraction); higher = more cells survive
Outline: (§1)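 Dosing by pin tool came one day after lung cancer cell lines were seeded in 1536-well plates, using either one drug or a fixed anchor-drug dose plus five library-drug doses (not always all listed) in √10 steps. After 5 days, nuclei were counted on 4× images. Relative viability is treated-well nuclei count divided by vehicle-well nuclei count, and values are medians of duplicate plates.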

[1] = compound: COC1=CC=C(C=C1)CN2C=CC3=C2C=C(C=C3)C(=O)NO + CC(=O)Nc1cccc(-n2c(=O)n(C3CC3)c(=O)c3c(Nc4ccc(I)cc4F)n(C)c(=O)c(C)c32)c1 [Trametinib] (partner 0.02 µM); experiment: as above
Outline: as §1

LK-2 was tested, and the relative viability (Veliparib + Dasatinib; first compound 0.06325 µM) was 0.266, the relative viability (Veliparib + Dasatinib; first compound 0.2 µM) was 0.258 and the relative viability (Veliparib + Dasatinib; first compound 0.6325 µM) was 0.325. For the same cell line, the relative viability (Veliparib + Dasatinib; first compound 2 µM) was 0.291, the relative viability ([1]; first compound 0.08 µM) was 0.534 and the relative viability ([1]; first compound 0.253 µM) was 0.694. It also gave a relative viability ([1]; first compound 0.8 µM) of 0.658, a relative viability ([1]; first compound 2.53 µM) of 0.686 and a relative viability ([1]; first compound 8 µM) of 0.646.

Cell Line NCI-H460 has a relative viability (Veliparib + Dasatinib; first compound 0.02 µM) of 0.456, a relative viability (Veliparib + Dasatinib; first compound 0.06325 µM) of 0.393 and a relative viability (Veliparib + Dasatinib; first compound 0.2 µM) of 0.419. For the same cell line, the relative viability (Veliparib + Dasatinib; first compound 0.6325 µM) was 0.466, the relative viability (Veliparib + Dasatinib; first compound 2 µM) was 0.479 and the relative viability ([1]; first compound 0.08 µM) was 0.157. It also gave a relative viability ([1]; first compound 0.253 µM) of 0.123, a relative viability ([1]; first compound 0.8 µM) of 0.153 and a relative viability ([1]; first compound 2.53 µM) of 0.178. For the same cell line, the relative viability ([1]; first compound 8 µM) was 0.0809.

SK-LU-1 showed a relative viability (Veliparib + Dasatinib; first compound 0.02 µM) of 0.185, a relative viability (Veliparib + Dasatinib; first compound 0.06325 µM) of 0.173 and a relative viability (Veliparib + Dasatinib; first compound 0.2 µM) of 0.175. The relative viability (Veliparib + Dasatinib; first compound 0.6325 µM) was 0.17, the relative viability (Veliparib + Dasatinib; first compound 2 µM) was 0.187 and the relative viability ([1]; first compound 0.08 µM) was 0.347. The relative viability ([1]; first compound 0.253 µM) was 0.537, the relative viability ([1]; first compound 0.8 µM) was 0.51 and the relative viability ([1]; first compound 2.53 µM) was 0.579. For the same cell line, the relative viability ([1]; first compound 8 µM) was 0.447.

LU99A showed a relative viability (Veliparib + Dasatinib; first compound 0.02 µM) of 0.592, a relative viability (Veliparib + Dasatinib; first compound 0.06325 µM) of 0.51 and a relative viability (Veliparib + Dasatinib; first compound 0.2 µM) of 0.612. For the same cell line, the relative viability (Veliparib + Dasatinib; first compound 0.6325 µM) was 0.517, the relative viability (Veliparib + Dasatinib; first compound 2 µM) was 0.431 and the relative viability ([1]; first compound 0.253 µM) was 0.61. For the same cell line, the relative viability ([1]; first compound 0.8 µM) was 0.553, the relative viability ([1]; first compound 2.53 µM) was 0.548 and the relative viability ([1]; first compound 8 µM) was 0.455.

UMC-11 showed a relative viability (Veliparib + Dasatinib; first compound 0.02 µM) of 0.505, a relative viability (Veliparib + Dasatinib; first compound 0.06325 µM) of 0.451 and a relative viability (Veliparib + Dasatinib; first compound 0.2 µM) of 0.483. The relative viability (Veliparib + Dasatinib; first compound 0.6325 µM) was 0.452, the relative viability (Veliparib + Dasatinib; first compound 2 µM) was 0.542 and the relative viability ([1]; first compound 0.08 µM) was 0.225. For the same cell line, the relative viability ([1]; first compound 0.253 µM) was 0.708, the relative viability ([1]; first compound 0.8 µM) was 0.712 and the relative viability ([1]; first compound 2.53 µM) was 0.735. It also gave a relative viability ([1]; first compound 8 µM) of 0.666.

Work on NCI-H1650 yielded a relative viability (Veliparib + Dasatinib; first compound 0.06325 µM) of 0.319, a relative viability (Veliparib + Dasatinib; first compound 0.2 µM) of 0.3 and a relative viability (Veliparib + Dasatinib; first compound 0.6325 µM) of 0.271. For the same cell line, the relative viability (Veliparib + Dasatinib; first compound 2 µM) was 0.223, the relative viability ([1]; first compound 0.08 µM) was 0.543 and the relative viability ([1]; first compound 0.253 µM) was 0.595. For the same cell line, the relative viability ([1]; first compound 0.8 µM) was 0.645, the relative viability ([1]; first compound 2.53 µM) was 0.624 and the relative viability ([1]; first compound 8 µM) was 0.539.

Cell Line PC-3 [JPC-3] has a relative viability (Veliparib + Dasatinib; first compound 0.02 µM) of 1.04, a relative viability (Veliparib + Dasatinib; first compound 0.06325 µM) of 0.93 and a relative viability (Veliparib + Dasatinib; first compound 0.2 µM) of 0.967. For the same cell line, the relative viability (Veliparib + Dasatinib; first compound 0.6325 µM) was 0.985, the relative viability (Veliparib + Dasatinib; first compound 2 µM) was 0.975 and the relative viability ([1]; first compound 0.08 µM) was 0.641. The relative viability ([1]; first compound 0.8 µM) was 0.75, the relative viability ([1]; first compound 2.53 µM) was 0.702 and the relative viability ([1]; first compound 8 µM) was 0.683.

With A-427 the relative viability (Veliparib + Dasatinib; first compound 0.06325 µM) was 0.714, the relative viability (Veliparib + Dasatinib; first compound 0.2 µM) was 0.699 and the relative viability (Veliparib + Dasatinib; first compound 0.6325 µM) was 0.657. It also gave a relative viability (Veliparib + Dasatinib; first compound 2 µM) of 0.539, a relative viability ([1]; first compound 0.08 µM) of 0.346 and a relative viability ([1]; first compound 0.8 µM) of 0.813. The relative viability ([1]; first compound 2.53 µM) was 0.781 and the relative viability ([1]; first compound 8 µM) was 0.675.

With HCC-366 the relative viability (Veliparib + Dasatinib; first compound 0.02 µM) was 0.524, the relative viability (Veliparib + Dasatinib; first compound 0.06325 µM) was 0.514 and the relative viability (Veliparib + Dasatinib; first compound 0.2 µM) was 0.582. The relative viability (Veliparib + Dasatinib; first compound 0.6325 µM) was 0.572, the relative viability (Veliparib + Dasatinib; first compound 2 µM) was 0.588 and the relative viability ([1]; first compound 0.08 µM) was 0.293. For the same cell line, the relative viability ([1]; first compound 0.253 µM) was 0.28, the relative viability ([1]; first compound 0.8 µM) was 0.328 and the relative viability ([1]; first compound 2.53 µM) was 0.295. For the same cell line, the relative viability ([1]; first compound 8 µM) was 0.333.

With LCLC-97TM1 the relative viability (Veliparib + Dasatinib; first compound 0.02 µM) was 0.848, the relative viability (Veliparib + Dasatinib; first compound 0.06325 µM) was 0.845 and the relative viability (Veliparib + Dasatinib; first compound 0.2 µM) was 0.895. For the same cell line, the relative viability (Veliparib + Dasatinib; first compound 0.6325 µM) was 0.653, the relative viability (Veliparib + Dasatinib; first compound 2 µM) was 0.864 and the relative viability ([1]; first compound 0.253 µM) was 0.201. It also gave a relative viability ([1]; first compound 0.8 µM) of 0.228, a relative viability ([1]; first compound 2.53 µM) of 0.19 and a relative viability ([1]; first compound 8 µM) of 0.204.

With NCI-H2170 the relative viability (Veliparib + Dasatinib; first compound 0.02 µM) was 0.549, the relative viability (Veliparib + Dasatinib; first compound 0.06325 µM) was 0.629 and the relative viability (Veliparib + Dasatinib; first compound 0.2 µM) was 0.587. For the same cell line, the relative viability (Veliparib + Dasatinib; first compound 0.6325 µM) was 0.562, the relative viability (Veliparib + Dasatinib; first compound 2 µM) was 0.592 and the relative viability ([1]; first compound 0.08 µM) was 0.888. It also gave a relative viability ([1]; first compound 0.253 µM) of 0.931, a relative viability ([1]; first compound 0.8 µM) of 0.867 and a relative viability ([1]; first compound 2.53 µM) of 0.897. For the same cell line, the relative viability ([1]; first compound 8 µM) was 0.865.

Cell Line NCI-H2085 has a relative viability (Veliparib + Dasatinib; first compound 0.02 µM) of 0.239, a relative viability (Veliparib + Dasatinib; first compound 0.06325 µM) of 0.213 and a relative viability (Veliparib + Dasatinib; first compound 0.2 µM) of 0.262. It also gave a relative viability (Veliparib + Dasatinib; first compound 0.6325 µM) of 0.252, a relative viability (Veliparib + Dasatinib; first compound 2 µM) of 0.246 and a relative viability ([1]; first compound 0.08 µM) of 0.528. The relative viability ([1]; first compound 0.253 µM) was 0.665, the relative viability ([1]; first compound 0.8 µM) was 0.692 and the relative viability ([1]; first compound 2.53 µM) was 0.524. It also gave a relative viability ([1]; first compound 8 µM) of 0.406.

In the case of NCI-H1666, the relative viability (Veliparib + Dasatinib; first compound 0.02 µM) was 0.725, the relative viability (Veliparib + Dasatinib; first compound 0.06325 µM) was 0.846 and the relative viability (Veliparib + Dasatinib; first compound 0.2 µM) was 0.766. The relative viability (Veliparib + Dasatinib; first compound 0.6325 µM) was 0.753, the relative viability (Veliparib + Dasatinib; first compound 2 µM) was 0.757 and the relative viability ([1]; first compound 0.08 µM) was 0.835. For the same cell line, the relative viability ([1]; first compound 0.253 µM) was 0.881, the relative viability ([1]; first compound 0.8 µM) was 0.849 and the relative viability ([1]; first compound 2.53 µM) was 0.934. For the same cell line, the relative viability ([1]; first compound 8 µM) was 0.793.

HCC-78 was tested, and the relative viability (Veliparib + Dasatinib; first compound 0.02 µM) was 0.438, the relative viability (Veliparib + Dasatinib; first compound 0.06325 µM) was 0.337 and the relative viability (Veliparib + Dasatinib; first compound 0.2 µM) was 0.444. For the same cell line, the relative viability (Veliparib + Dasatinib; first compound 0.6325 µM) was 0.483, the relative viability (Veliparib + Dasatinib; first compound 2 µM) was 0.257 and the relative viability ([1]; first compound 0.08 µM) was 0.671. For the same cell line, the relative viability ([1]; first compound 0.253 µM) was 0.807, the relative viability ([1]; first compound 0.8 µM) was 0.634 and the relative viability ([1]; first compound 2.53 µM) was 0.798. For the same cell line, the relative viability ([1]; first compound 8 µM) was 0.613.

Work on 201T yielded a relative viability (Veliparib + Dasatinib; first compound 0.02 µM) of 0.529, a relative viability (Veliparib + Dasatinib; first compound 0.06325 µM) of 0.572 and a relative viability (Veliparib + Dasatinib; first compound 0.2 µM) of 0.537. It also gave a relative viability (Veliparib + Dasatinib; first compound 0.6325 µM) of 0.614, a relative viability (Veliparib + Dasatinib; first compound 2 µM) of 0.52 and a relative viability ([1]; first compound 0.08 µM) of 0.769. The relative viability ([1]; first compound 0.253 µM) was 0.733, the relative viability ([1]; first compound 0.8 µM) was 0.773 and the relative viability ([1]; first compound 2.53 µM) was 0.743. For the same cell line, the relative viability ([1]; first compound 8 µM) was 0.701.

In the case of NCI-H596, the relative viability (Veliparib + Dasatinib; first compound 0.02 µM) was 0.611, the relative viability (Veliparib + Dasatinib; first compound 0.06325 µM) was 0.571 and the relative viability (Veliparib + Dasatinib; first compound 0.2 µM) was 0.641. The relative viability (Veliparib + Dasatinib; first compound 0.6325 µM) was 0.521, the relative viability (Veliparib + Dasatinib; first compound 2 µM) was 0.633 and the relative viability ([1]; first compound 0.08 µM) was 0.64. It also gave a relative viability ([1]; first compound 0.253 µM) of 0.797, a relative viability ([1]; first compound 0.8 µM) of 0.923 and a relative viability ([1]; first compound 2.53 µM) of 0.776. For the same cell line, the relative viability ([1]; first compound 8 µM) was 0.758.

LXF-289 showed a relative viability (Veliparib + Dasatinib; first compound 0.02 µM) of 0.251, a relative viability (Veliparib + Dasatinib; first compound 0.06325 µM) of 0.2 and a relative viability (Veliparib + Dasatinib; first compound 0.2 µM) of 0.251. The relative viability (Veliparib + Dasatinib; first compound 0.6325 µM) was 0.204, the relative viability (Veliparib + Dasatinib; first compound 2 µM) was 0.224 and the relative viability ([1]; first compound 0.253 µM) was 0.698. The relative viability ([1]; first compound 0.8 µM) was 0.712, the relative viability ([1]; first compound 2.53 µM) was 0.677 and the relative viability ([1]; first compound 8 µM) was 0.677.

ABC-1 showed a relative viability (Veliparib + Dasatinib; first compound 0.06325 µM) of 0.355, a relative viability (Veliparib + Dasatinib; first compound 0.2 µM) of 0.604 and a relative viability (Veliparib + Dasatinib; first compound 0.6325 µM) of 0.591. It also gave a relative viability (Veliparib + Dasatinib; first compound 2 µM) of 0.367.
